Test results as given in paper PMC7224190, “Pharmacological inhibition of PRMT7 links arginine monomethylation to the cellular stress response” (Nature Communications, 2020).

Legend:
Assay in all cases: biochemical
Parameters in all cases: radiometric methyltransferase selectivity assay with tritiated SAM, per cent activity
Conditions in all cases: read-out: % of control remaining
G9A = molecular target: T1, G9A (Homo sapiens, UniProt Q96KQ7)
T1 construct: gene EHMT2
T1 sequence (Q96KQ7 1-1210): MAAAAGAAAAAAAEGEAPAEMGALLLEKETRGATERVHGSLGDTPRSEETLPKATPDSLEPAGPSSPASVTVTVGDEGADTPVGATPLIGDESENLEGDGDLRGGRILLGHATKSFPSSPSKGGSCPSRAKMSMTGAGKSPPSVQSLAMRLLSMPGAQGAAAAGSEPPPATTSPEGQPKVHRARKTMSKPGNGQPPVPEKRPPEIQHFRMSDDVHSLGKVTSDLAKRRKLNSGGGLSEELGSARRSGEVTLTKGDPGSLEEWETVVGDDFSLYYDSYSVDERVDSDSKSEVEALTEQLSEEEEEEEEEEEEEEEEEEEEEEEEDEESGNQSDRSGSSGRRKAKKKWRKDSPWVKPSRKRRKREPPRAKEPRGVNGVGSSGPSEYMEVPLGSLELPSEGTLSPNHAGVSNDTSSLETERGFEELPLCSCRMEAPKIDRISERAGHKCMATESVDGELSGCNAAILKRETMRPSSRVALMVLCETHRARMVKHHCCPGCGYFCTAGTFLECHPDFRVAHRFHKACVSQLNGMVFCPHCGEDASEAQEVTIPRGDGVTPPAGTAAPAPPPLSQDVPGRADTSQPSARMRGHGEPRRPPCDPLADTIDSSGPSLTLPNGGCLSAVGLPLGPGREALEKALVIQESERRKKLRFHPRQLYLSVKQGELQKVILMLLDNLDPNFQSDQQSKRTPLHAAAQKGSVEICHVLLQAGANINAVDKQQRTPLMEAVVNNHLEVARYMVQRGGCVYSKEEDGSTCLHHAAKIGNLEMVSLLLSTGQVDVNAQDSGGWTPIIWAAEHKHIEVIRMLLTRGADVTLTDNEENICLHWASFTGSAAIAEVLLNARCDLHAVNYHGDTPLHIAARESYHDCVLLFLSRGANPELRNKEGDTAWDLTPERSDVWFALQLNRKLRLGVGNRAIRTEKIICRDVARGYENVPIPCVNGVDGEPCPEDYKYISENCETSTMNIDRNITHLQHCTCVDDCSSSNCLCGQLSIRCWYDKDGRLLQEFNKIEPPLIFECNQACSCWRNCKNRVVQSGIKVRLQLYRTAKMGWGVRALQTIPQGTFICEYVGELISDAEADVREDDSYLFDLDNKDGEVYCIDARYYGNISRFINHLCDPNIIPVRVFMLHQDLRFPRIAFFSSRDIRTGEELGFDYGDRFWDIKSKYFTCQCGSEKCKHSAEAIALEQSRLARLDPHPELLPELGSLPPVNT
Procedure, shortened: (§1)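 Radiometric methyltransferase assays with ³H-SAM and substrate near apparent Km, compound tested at 1 and 10 μM. Methyl incorporation into biotinylated substrate read by scintillation proximity after guanidine quench; no-compound = 100%, no-enzyme = 0% activity.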

SUV420H2 = molecular target: T2, SUV420H2 (Homo sapiens, UniProt Q86Y97)
T2 construct: gene KMT5C
T2 sequence (Q86Y97 whole entry): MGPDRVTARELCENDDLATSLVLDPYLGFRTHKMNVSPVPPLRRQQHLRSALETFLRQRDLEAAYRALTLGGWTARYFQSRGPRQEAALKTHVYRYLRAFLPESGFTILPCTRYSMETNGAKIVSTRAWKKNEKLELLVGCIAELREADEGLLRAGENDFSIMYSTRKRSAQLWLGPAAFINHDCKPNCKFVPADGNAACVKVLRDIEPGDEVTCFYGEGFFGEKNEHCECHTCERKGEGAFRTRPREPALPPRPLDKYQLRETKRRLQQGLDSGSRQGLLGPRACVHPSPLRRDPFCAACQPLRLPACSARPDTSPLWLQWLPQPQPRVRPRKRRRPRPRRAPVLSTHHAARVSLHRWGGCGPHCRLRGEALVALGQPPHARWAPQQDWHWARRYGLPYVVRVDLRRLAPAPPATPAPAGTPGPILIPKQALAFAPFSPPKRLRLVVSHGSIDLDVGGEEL
Procedure, shortened: as §1

SETD7 = molecular target: T3, SETD7 (Homo sapiens, UniProt Q8WTS6)
T3 sequence (Q8WTS6 1-366): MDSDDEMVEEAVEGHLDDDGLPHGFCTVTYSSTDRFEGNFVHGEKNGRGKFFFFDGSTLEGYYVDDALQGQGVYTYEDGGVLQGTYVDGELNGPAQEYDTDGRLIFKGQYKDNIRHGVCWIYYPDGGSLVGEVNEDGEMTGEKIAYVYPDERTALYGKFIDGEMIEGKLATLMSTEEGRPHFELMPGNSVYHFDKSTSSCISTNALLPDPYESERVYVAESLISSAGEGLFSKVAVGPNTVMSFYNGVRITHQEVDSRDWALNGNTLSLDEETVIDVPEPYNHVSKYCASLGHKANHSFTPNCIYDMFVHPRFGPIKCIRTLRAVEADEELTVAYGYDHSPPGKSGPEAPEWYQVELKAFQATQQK
Procedure, shortened: as §1

SMILES | remaining activity at 1 µM (G9A) [%] | remaining activity at 10 µM (G9A) [%] | remaining activity at 1 µM (SUV420H2) [%] | remaining activity at 10 µM (SUV420H2) [%] | remaining activity at 1 µM (SETD7) [%] | remaining activity at 10 µM (SETD7) [%]
CC1(C)O[C@@H]2[C@H](O1)[C@@H](CSCCCCNCc1cccc(-c3ccc(Cl)cc3)c1)O[C@H]2n1cnc2c(N)ncnc21 [SGC8158N] | 99 | 98 | 102 | 101 | 96 | 89
Nc1ncnc2c1ncn2[C@@H]1O[C@H](CSCCCCNCc2cccc(-c3ccc(Cl)cc3)c2)[C@@H](O)[C@H]1O [SGC8158] | 100 | 99 | 98 | 87 | 100 | 100
